Where two headings read alike, the source gives them in different places.
Tests used:
EGFR del19/T790M/C797S = EGFR del19/T790M/C797S (Homo sapiens, UniProt P00533, C797S/DEL746-750/T790M); experiment: Biochemical EGFR kinase assay (Lance Ultra TR-FRET), triple mutant del19/T790M/C797S
Method in brief: (§1)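 Kinase activity is measured by TR-FRET phosphopeptide detection. Compounds span 0.003 μM to 10 μM; the 1 h reaction at room temperature is quenched with EDTA, then labelled antibody (2 nM) is incubated 60 min before reading.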

EGFR wildtype (WT) = EGFR wildtype (WT) (Homo sapiens, UniProt P00533); experiment: Biochemical EGFR kinase assay (Lance Ultra TR-FRET), wildtype
Method in brief: as §1

EGFR L858R/C797S = EGFR L858R/C797S (Homo sapiens, UniProt P00533, C797S/L858R); experiment: Biochemical EGFR kinase assay (Lance Ultra TR-FRET), double mutant L858R/C797S
Method in brief: as §1

EGFR L858R/T790M/C797S = EGFR L858R/T790M/C797S (Homo sapiens, UniProt P00533, C797S/L858R/T790M); experiment: Biochemical EGFR kinase assay (Lance Ultra TR-FRET), triple mutant L858R/T790M/C797S
Method in brief: as §1

EGFR del19/C797S = EGFR del19/C797S (Homo sapiens, UniProt P00533, C797S/DEL746-750); experiment: Biochemical EGFR kinase assay (Lance Ultra TR-FRET), double mutant del19/C797S
Method in brief: as §1

[1] = Km ATP, read-out: IC50 del19/T790M/C797S (nM) Km ATP
[2] = read-out: IC50 del19/T790M/C797S (nM) 100 μM ATP, 100 μM ATP
[3] = Km ATP, read-out: IC50 WT (nM) Km ATP
[4] = read-out: IC50 WT (nM) 100 μM ATP, 100 μM ATP
[5] = Km ATP, read-out: IC50 L858R/C797S (nM) Km ATP
[6] = read-out: IC50 L858R/C797S (nM) 100 μM ATP, 100 μM ATP
[7] = Km ATP, read-out: IC50 L858R/T790M/C797S (nM) Km ATP
[8] = read-out: IC50 L858R/T790M/C797S (nM) 100 μM ATP, 100 μM ATP
[9] = Km ATP, read-out: IC50 del19/C797S (nM) Km ATP
[10] = read-out: IC50 del19/C797S (nM) 100 μM ATP, 100 μM ATP
[11] = IC50 del19/T790M/C797S (nM) 100 μM ATP, 100 μM ATP
[12] = IC50 WT (nM) 100 μM ATP, 100 μM ATP
[13] = IC50 L858R/C797S (nM) 100 μM ATP, 100 μM ATP
[14] = IC50 L858R/T790M/C797S (nM) 100 μM ATP, 100 μM ATP
[15] = IC50 del19/C797S (nM) 100 μM ATP, 100 μM ATP

Chain of EGFR wildtype (WT) (P00533 25-1210): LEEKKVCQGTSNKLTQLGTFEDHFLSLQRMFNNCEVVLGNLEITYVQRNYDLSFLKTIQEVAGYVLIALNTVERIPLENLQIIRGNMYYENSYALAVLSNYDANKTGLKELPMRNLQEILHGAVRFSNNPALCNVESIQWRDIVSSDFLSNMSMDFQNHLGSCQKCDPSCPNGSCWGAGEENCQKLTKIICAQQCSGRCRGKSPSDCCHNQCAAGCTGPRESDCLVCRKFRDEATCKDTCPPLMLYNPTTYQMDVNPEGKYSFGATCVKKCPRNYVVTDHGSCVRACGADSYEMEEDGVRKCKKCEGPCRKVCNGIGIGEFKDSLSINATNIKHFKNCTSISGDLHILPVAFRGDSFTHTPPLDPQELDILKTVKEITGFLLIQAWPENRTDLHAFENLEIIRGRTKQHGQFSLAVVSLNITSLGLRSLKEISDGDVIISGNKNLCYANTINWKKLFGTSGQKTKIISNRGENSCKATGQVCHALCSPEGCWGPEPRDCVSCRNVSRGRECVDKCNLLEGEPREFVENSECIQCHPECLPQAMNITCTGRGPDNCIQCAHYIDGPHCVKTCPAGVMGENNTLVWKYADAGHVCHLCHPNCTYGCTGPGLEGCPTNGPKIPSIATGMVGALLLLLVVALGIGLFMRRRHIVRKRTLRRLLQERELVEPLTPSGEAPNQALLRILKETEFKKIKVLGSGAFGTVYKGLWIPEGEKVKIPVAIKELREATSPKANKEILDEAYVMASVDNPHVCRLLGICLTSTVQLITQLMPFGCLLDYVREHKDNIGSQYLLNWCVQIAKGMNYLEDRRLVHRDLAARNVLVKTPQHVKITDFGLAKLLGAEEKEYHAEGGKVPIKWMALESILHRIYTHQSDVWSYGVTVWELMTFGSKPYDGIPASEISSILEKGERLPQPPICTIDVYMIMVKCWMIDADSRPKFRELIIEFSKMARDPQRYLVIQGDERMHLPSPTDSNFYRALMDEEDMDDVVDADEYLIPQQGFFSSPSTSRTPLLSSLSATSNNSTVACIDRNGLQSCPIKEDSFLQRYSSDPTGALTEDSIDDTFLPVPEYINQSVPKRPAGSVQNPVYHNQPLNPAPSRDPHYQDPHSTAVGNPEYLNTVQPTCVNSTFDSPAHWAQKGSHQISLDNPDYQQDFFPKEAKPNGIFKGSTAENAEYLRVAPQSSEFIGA
Chain of EGFR L858R/T790M/C797S (P00533 25-1210 T790M/C797S/L858R): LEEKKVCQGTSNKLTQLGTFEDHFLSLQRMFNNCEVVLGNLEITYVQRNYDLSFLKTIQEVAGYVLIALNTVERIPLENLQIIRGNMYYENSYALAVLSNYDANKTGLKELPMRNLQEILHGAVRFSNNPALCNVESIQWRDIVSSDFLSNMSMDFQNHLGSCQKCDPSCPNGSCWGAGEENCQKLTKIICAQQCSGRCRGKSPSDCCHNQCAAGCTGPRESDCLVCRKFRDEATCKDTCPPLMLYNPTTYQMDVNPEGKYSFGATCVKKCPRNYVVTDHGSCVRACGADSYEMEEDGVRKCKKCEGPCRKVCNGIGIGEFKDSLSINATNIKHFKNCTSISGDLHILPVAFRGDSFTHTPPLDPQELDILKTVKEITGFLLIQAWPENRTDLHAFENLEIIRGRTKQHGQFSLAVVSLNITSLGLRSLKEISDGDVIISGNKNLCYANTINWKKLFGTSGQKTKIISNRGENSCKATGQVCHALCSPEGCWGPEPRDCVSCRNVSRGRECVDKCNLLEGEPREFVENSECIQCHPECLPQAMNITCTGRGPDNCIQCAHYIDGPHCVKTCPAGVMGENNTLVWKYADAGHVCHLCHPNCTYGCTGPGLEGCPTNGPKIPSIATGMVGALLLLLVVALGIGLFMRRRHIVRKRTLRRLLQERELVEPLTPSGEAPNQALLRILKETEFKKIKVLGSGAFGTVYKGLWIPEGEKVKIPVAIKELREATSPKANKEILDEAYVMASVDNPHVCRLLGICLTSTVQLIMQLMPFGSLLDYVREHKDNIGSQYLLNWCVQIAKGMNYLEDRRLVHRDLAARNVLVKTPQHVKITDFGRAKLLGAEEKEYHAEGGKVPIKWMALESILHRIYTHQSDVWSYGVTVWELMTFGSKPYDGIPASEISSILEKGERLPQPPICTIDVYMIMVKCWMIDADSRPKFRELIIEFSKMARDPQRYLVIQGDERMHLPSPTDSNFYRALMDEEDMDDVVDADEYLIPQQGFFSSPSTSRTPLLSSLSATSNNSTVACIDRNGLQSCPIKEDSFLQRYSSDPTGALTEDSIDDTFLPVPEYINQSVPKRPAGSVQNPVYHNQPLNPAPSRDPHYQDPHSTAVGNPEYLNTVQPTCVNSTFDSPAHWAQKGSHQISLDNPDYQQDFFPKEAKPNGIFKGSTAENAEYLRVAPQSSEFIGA
Chain of EGFR del19/T790M/C797S (P00533 with tags, fused parts or gaps DEL746-750/T790M/C797S): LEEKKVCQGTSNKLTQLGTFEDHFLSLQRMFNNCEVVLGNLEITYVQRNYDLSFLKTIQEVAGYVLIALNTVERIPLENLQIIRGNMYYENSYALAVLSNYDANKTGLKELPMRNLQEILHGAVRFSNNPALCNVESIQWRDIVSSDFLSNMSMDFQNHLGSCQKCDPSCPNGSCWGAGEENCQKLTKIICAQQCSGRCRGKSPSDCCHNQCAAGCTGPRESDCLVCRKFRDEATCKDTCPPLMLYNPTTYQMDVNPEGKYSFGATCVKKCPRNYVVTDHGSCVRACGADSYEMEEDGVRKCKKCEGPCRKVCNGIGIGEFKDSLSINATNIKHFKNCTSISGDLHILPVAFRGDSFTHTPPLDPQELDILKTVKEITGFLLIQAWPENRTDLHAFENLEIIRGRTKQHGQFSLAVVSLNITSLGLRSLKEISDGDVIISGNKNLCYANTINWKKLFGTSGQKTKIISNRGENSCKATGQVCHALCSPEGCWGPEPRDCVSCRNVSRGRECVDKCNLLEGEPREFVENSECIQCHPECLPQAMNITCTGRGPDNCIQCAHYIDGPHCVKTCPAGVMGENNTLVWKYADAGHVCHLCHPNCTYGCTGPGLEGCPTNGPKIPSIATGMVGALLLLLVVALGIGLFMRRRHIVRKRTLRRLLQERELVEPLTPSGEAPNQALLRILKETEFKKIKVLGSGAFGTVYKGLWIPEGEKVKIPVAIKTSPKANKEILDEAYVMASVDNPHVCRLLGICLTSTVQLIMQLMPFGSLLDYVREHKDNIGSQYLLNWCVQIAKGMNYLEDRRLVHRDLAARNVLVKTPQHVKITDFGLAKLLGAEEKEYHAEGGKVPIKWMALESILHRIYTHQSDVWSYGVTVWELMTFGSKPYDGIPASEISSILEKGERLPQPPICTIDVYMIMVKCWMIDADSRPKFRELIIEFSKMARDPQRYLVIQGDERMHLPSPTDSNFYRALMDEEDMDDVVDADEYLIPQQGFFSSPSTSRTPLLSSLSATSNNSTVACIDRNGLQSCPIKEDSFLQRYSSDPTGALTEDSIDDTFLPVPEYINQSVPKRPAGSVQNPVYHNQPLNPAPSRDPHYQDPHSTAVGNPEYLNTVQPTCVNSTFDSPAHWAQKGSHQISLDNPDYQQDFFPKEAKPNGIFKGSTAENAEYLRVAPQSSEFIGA
Chain of EGFR del19/C797S (P00533 with tags, fused parts or gaps DEL746-750/C797S): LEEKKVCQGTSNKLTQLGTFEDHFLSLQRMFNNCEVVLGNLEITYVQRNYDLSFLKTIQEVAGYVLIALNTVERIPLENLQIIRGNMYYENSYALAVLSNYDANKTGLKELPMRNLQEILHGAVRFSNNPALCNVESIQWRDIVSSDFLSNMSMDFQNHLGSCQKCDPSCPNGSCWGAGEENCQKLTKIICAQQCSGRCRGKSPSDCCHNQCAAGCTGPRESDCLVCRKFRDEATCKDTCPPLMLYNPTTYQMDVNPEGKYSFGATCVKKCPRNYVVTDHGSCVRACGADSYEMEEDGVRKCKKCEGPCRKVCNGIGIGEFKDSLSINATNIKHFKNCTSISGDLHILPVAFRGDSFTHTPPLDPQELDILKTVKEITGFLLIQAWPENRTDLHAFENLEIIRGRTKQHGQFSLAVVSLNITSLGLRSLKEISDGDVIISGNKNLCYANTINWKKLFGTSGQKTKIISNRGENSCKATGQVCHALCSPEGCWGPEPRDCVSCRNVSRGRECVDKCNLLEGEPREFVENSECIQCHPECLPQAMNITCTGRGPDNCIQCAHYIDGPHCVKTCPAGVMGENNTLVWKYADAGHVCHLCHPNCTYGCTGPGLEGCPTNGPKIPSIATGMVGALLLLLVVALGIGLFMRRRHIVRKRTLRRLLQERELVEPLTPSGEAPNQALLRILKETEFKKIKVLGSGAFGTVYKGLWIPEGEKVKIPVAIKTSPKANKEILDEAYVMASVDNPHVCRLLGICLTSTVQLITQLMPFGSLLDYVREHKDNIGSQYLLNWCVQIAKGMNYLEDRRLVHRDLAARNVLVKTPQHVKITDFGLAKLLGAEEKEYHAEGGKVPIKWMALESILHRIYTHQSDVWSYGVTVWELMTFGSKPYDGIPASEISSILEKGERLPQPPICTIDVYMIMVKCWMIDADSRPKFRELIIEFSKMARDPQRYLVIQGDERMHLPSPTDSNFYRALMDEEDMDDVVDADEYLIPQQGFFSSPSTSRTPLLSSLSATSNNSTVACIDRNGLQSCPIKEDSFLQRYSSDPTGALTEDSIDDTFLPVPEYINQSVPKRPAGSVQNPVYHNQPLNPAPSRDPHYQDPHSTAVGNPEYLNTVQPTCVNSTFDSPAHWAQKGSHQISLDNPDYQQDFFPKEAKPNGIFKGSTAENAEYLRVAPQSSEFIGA

SMILES	IC50 (EGFR del19/T790M/C797S; [1])	IC50 (EGFR del19/T790M/C797S; [2])	IC50 (EGFR wildtype (WT); [3])	IC50 (EGFR wildtype (WT); [4])	IC50 (EGFR L858R/C797S; [5])	IC50 (EGFR L858R/C797S; [6])	IC50 (EGFR L858R/T790M/C797S; [7])	IC50 (EGFR L858R/T790M/C797S; [8])	IC50 (EGFR del19/C797S; [9])	IC50 (EGFR del19/C797S; [10])	IC50 (EGFR del19/T790M/C797S; [11])	IC50 (EGFR wildtype (WT); [12])	IC50 (EGFR L858R/C797S; [13])	IC50 (EGFR L858R/T790M/C797S; [14])	IC50 (EGFR del19/C797S; [15])	IC50 (EGFR del19/T790M/C797S; Km ATP, read-out: IC50 del19/T790M/C797S, Km ATP)	IC50 (EGFR wildtype (WT); Km ATP, read-out: IC50 WT, Km ATP)	IC50 (EGFR L858R/C797S; Km ATP, read-out: IC50 L858R/C797S, Km ATP)	IC50 (EGFR L858R/T790M/C797S; Km ATP, read-out: IC50 L858R/T790M/C797S, Km ATP)	IC50 (EGFR del19/C797S; Km ATP, read-out: IC50 del19/C797S, Km ATP)
O=S(=O)(C1CC1)n1cc(-c2nccc(Nc3cc(N[C@H]4CC[C@@H](O)C4)c(-c4ccn(C(F)F)n4)cn3)n2)cn1 [Example 14, (1R,3S)-3-((2-((2-(1-(Cyclopropylsulfonyl)-1H-pyrazol-4-yl)pyrimidin-4-yl)amino)-5-(1-(difluoromethyl)-1H-pyrazol-3-yl)pyridin-4-yl)amino)cyclopentan-1-ol]											0.6 nM	7510 nM	14.2 nM	0.9 nM	4.9 nM					
O=S(=O)(C1CC1)n1cc(-c2nccc(Nc3cc(N[C@H]4CC[C@@H](NCCF)CC4)c(-c4csc(C(F)(F)F)n4)cn3)n2)cn1 [Example 50, N^2-(2-(1-(Cyclopropylsulfonyl)-1H-pyrazol-4-yl)pyrimidin-4-yl)-N^4-((1s,4s)-4-((2-fluoroethyl)amino)cyclohexyl)-5-(2-(trifluoromethyl)thiazol-4-yl)pyridine-2,4-diamine]		1.1 nM		> 10000 nM		42.2 nM		1.6 nM		25.6 nM										
CNC(=O)[C@H]1CC[C@@H](Nc2cc(Nc3ccnc(-c4cnn(S(=O)(=O)C5CC5)c4)n3)ncc2-c2ccn(C(F)F)n2)CC1 [Example 24, (1s,4s)-4-((2-((2-(1-(Cyclopropylsulfonyl)-1H-pyrazol-4-yl)pyrimidin-4-yl)amino)-5-(1-(difluoromethyl)-1H-pyrazol-3-yl)pyridin-4-yl)amino)-N-methylcyclohexane-1-carboxamide]	0.3 nM		6.9 nM		2 nM		0.2 nM		0.7 nM		0.5 nM	> 10000 nM	14.3 nM	0.3 nM	0.8 nM					
CC(C)(O)[C@H]1CC[C@@H](Nc2cc(Nc3ccnc(-c4cnn(S(=O)(=O)C5CC5)c4)n3)ncc2-c2csc(C(F)(F)F)n2)CC1 [Example 49, 2-((1s,4s)-4-((2-((2-(1-(Cyclopropylsulfonyl)-1H-pyrazol-4-yl)pyrimidin-4-yl)amino)-5-(2-(trifluoromethyl)thiazol-4-yl)pyridin-4-yl)amino)cyclohexyl)propan-2-ol]		18.8 nM		> 10000 nM		278 nM		28.7 nM		200 nM										
O=S(=O)(C1CC1)n1cc(-c2nccc(Nc3cc(N[C@H]4CC[C@@H](O)CC4)c(-c4cnn(C(F)F)c4)cn3)n2)cn1 [Example 77, (1s,4s)-4-((2-((2-(1-(Cyclopropylsulfonyl)-1H-pyrazol-4-yl)pyrimidin-4-yl)amino)-5-(1-(difluoromethyl)-1H-pyrazol-4-yl)pyridin-4-yl)amino)cyclohexan-1-ol]											8.8 nM	> 10000 nM	479 nM	11.4 nM	80.8 nM					
O=S(=O)(C1CC1)n1cc(-c2nccc(Nc3cc(NC4CC(O)C4)c(-c4ccn(C(F)F)n4)cn3)n2)cn1 (stereo not shown) [Example 40, 3-((2-((2-(1-(Cyclopropylsulfonyl)-1H-pyrazol-4-yl)pyrimidin-4-yl)amino)-5-(1-(difluoromethyl)-1H-pyrazol-3-yl)pyridin-4-yl)amino)cyclobutan-1-ol]	0.5 nM		36.3 nM		4.5 nM		0.3 nM		2.3 nM		0.5 nM	> 10000 nM	174 nM	2 nM	7.6 nM					

Results, then the compound that gave them:

IC50 (EGFR del19/T790M/C797S; [1])	IC50 (EGFR del19/T790M/C797S; [2])	IC50 (EGFR wildtype (WT); [3])	IC50 (EGFR wildtype (WT); [4])	IC50 (EGFR L858R/C797S; [5])	IC50 (EGFR L858R/C797S; [6])	IC50 (EGFR L858R/T790M/C797S; [7])	IC50 (EGFR L858R/T790M/C797S; [8])	IC50 (EGFR del19/C797S; [9])	IC50 (EGFR del19/C797S; [10])	IC50 (EGFR del19/T790M/C797S; [11])	IC50 (EGFR wildtype (WT); [12])	IC50 (EGFR L858R/C797S; [13])	IC50 (EGFR L858R/T790M/C797S; [14])	IC50 (EGFR del19/C797S; [15])	IC50 (EGFR del19/T790M/C797S; Km ATP, read-out: IC50 del19/T790M/C797S, Km ATP)	IC50 (EGFR wildtype (WT); Km ATP, read-out: IC50 WT, Km ATP)	IC50 (EGFR L858R/C797S; Km ATP, read-out: IC50 L858R/C797S, Km ATP)	IC50 (EGFR L858R/T790M/C797S; Km ATP, read-out: IC50 L858R/T790M/C797S, Km ATP)	IC50 (EGFR del19/C797S; Km ATP, read-out: IC50 del19/C797S, Km ATP)	SMILES
1.2 nM	2.1 nM	220 nM	> 10000 nM	34.9 nM	60.7 nM	0.5 nM	4.9 nM	34.5 nM	75.4 nM											CS(=O)(=O)n1cc(-c2nccc(Nc3cc(N[C@H]4CC[C@@](C)(O)CC4)c(-c4ccn(C(F)F)n4)cn3)n2)cn1 [Example 112, (1s,4s)-4-((5-(1-(Difluoromethyl)-1H-pyrazol-3-yl)-2-((2-(1-(methylsulfonyl)-1H-pyrazol-4-yl)pyrimidin-4-yl)amino)pyridin-4-yl)amino)-1-methylcyclohexan-1-ol]
0.6 nM		129 nM		47.7 nM		0.4 nM		58.9 nM												C[C@]1(O)CC[C@@H](Nc2cc(Nc3ccnc(-c4cnn(S(=O)(=O)C5CC5)c4)n3)ncc2-n2ccc(C(F)(F)F)n2)CC1 [Example 167, (1s,4s)-4-((2-((2-(1-(Cyclopropylsulfonyl)-1H-pyrazol-4-yl)pyrimidin-4-yl)amino)-5-(3-(trifluoromethyl)-1H-pyrazol-1-yl)pyridin-4-yl)amino)-1-methylcyclohexan-1-ol]
2.5 nM		288 nM		75 nM		1.2 nM		24.6 nM		6.5 nM	> 10000 nM	1140 nM	4.1 nM	37.1 nM						Cn1nc(-c2cnc(Nc3ccnc(-c4cnn(CC(F)(F)F)c4)n3)cc2N[C@H]2CC[C@@](C)(O)CC2)cc1C(F)(F)F [Example 329, (1s,4s)-1-Methyl-4-((5-(1-methyl-5-(trifluoromethyl)-1H-pyrazol-3-yl)-2-((2-(1-(2,2,2-trifluoroethyl)-1H-pyrazol-4-yl)pyrimidin-4-yl)amino)pyridin-4-yl)amino)cyclohexan-1-ol]
															0.5 nM	173 nM	6.7 nM	0.3 nM	21.4 nM	C[C@]1(O)CC[C@@H](Nc2cc(Nc3ccnc(-c4cnn(CC(F)F)c4)n3)ncc2-c2ccn(C(F)(F)F)n2)CC1 [Example 340, (1s,4s)-4-((2-((2-(1-(2,2-Difluoroethyl)-1H-pyrazol-4-yl)pyrimidin-4-yl)amino)-5-(1-(trifluoromethyl)-1H-pyrazol-3-yl)pyridin-4-yl)amino)-1-methylcyclohexan-1-ol]
0.6 nM		199 nM		7.2 nM		0.5 nM		23 nM												C[C@]1(O)CC[C@@H](Nc2cc(Nc3ccnc(-c4cnn(CCF)c4)n3)ncc2-c2ccn(C(F)F)n2)CC1 [Example 145, (1s,4s)-4-((5-(1-(Difluoromethyl)-1H-pyrazol-3-yl)-2-((2-(1-(2-fluoroethyl)-1H-pyrazol-4-yl)pyrimidin-4-yl)amino)pyridin-4-yl)amino)-1-methylcyclohexan-1-ol]
0.3 nM		2.3 nM		0.5 nM		0.1 nM		0.6 nM		0.2 nM	975 nM	1.9 nM	0.4 nM	0.5 nM						O=S(=O)(C1CC1)n1cc(-c2nccc(Nc3cc(N[C@H]4CC[C@@H](CO)CC4)c(-c4ccn(CC(F)F)n4)cn3)n2)cn1 [Example 244, ((1s,4s)-4-((2-((2-(1-(Cyclopropylsulfonyl)-1H-pyrazol-4-yl)pyrimidin-4-yl)amino)-5-(1-(2,2-difluoroethyl)-1H-pyrazol-3-yl)pyridin-4-yl)amino)cyclohexyl)methanol]
1 nM		15.4 nM		19.9 nM		0.3 nM		7.1 nM		0.9 nM	4510 nM	400 nM	1.1 nM	10.2 nM						CN(C)CC1(C)CCC(Nc2cc(Nc3ccnc(-c4cnn(S(=O)(=O)C5CC5)c4)n3)ncc2-c2ccn(CC(F)F)n2)CC1 (stereo not shown) [Example 246, N^2-(2-(1-(Cyclopropylsulfonyl)-1H-pyrazol-4-yl)pyrimidin-4-yl)-5-(1-(2,2-difluoroethyl)-1H-pyrazol-3-yl)-N^4-(4-((dimethylamino)methyl)-4-methylcyclohexyl)pyridine-2,4-diamine]
0.2 nM		454 nM		23.7 nM		0.4 nM		28.7 nM												O=S(=O)(C1CC1)n1cc(-c2nccc(Nc3cc(NC4CCN(CCF)CC4)c(-c4ccn(C(F)F)n4)cn3)n2)cn1 [Example 217, N^2-(2-(1-(Cyclopropylsulfonyl)-1H-pyrazol-4-yl)pyrimidin-4-yl)-5-(1-(difluoromethyl)-1H-pyrazol-3-yl)-N^4-(1-(2-fluoroethyl)piperidin-4-yl)pyridine-2,4-diamine]
